Molecules are shown by their SMILES. Structures can show the parent of a compound that is named as a salt.

The target in assay [1] is T1, hNav1.7 (Homo sapiens (Human), UniProt Q15858). In words: Electrophysiological assay (EP), voltage clamp on Syncropatch 384PE, CHO cells stably expressing Nav1.7. The following applies: holding potential −50 mV, 7.5 min compound incubation, read-out: EP_SP hNav1.7 EVO IC50. The assay is classed as cell-based. An outline of the steps:
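Whole-cell automated patch clamp was run on CHO cells stably expressing human Nav1.7 cDNA, with internal solution CsCl/EGTA pH 7.2, external solution 80 mM NaCl pH 7.4, and 0.1% Pluronic F-127. From a −50 mV holding potential: −10 mV for 10 ms, −150 mV for 20 ms, then −10 mV for 10 ms, where current was measured. Inhibition was taken after 7.5 min compound incubation, with TTX added for full block.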
For orientation: In patch-clamp work, channel activity is measured electrically.
Target sequence in this assay (Q15858 other isoform, or with tags, fused parts or gaps): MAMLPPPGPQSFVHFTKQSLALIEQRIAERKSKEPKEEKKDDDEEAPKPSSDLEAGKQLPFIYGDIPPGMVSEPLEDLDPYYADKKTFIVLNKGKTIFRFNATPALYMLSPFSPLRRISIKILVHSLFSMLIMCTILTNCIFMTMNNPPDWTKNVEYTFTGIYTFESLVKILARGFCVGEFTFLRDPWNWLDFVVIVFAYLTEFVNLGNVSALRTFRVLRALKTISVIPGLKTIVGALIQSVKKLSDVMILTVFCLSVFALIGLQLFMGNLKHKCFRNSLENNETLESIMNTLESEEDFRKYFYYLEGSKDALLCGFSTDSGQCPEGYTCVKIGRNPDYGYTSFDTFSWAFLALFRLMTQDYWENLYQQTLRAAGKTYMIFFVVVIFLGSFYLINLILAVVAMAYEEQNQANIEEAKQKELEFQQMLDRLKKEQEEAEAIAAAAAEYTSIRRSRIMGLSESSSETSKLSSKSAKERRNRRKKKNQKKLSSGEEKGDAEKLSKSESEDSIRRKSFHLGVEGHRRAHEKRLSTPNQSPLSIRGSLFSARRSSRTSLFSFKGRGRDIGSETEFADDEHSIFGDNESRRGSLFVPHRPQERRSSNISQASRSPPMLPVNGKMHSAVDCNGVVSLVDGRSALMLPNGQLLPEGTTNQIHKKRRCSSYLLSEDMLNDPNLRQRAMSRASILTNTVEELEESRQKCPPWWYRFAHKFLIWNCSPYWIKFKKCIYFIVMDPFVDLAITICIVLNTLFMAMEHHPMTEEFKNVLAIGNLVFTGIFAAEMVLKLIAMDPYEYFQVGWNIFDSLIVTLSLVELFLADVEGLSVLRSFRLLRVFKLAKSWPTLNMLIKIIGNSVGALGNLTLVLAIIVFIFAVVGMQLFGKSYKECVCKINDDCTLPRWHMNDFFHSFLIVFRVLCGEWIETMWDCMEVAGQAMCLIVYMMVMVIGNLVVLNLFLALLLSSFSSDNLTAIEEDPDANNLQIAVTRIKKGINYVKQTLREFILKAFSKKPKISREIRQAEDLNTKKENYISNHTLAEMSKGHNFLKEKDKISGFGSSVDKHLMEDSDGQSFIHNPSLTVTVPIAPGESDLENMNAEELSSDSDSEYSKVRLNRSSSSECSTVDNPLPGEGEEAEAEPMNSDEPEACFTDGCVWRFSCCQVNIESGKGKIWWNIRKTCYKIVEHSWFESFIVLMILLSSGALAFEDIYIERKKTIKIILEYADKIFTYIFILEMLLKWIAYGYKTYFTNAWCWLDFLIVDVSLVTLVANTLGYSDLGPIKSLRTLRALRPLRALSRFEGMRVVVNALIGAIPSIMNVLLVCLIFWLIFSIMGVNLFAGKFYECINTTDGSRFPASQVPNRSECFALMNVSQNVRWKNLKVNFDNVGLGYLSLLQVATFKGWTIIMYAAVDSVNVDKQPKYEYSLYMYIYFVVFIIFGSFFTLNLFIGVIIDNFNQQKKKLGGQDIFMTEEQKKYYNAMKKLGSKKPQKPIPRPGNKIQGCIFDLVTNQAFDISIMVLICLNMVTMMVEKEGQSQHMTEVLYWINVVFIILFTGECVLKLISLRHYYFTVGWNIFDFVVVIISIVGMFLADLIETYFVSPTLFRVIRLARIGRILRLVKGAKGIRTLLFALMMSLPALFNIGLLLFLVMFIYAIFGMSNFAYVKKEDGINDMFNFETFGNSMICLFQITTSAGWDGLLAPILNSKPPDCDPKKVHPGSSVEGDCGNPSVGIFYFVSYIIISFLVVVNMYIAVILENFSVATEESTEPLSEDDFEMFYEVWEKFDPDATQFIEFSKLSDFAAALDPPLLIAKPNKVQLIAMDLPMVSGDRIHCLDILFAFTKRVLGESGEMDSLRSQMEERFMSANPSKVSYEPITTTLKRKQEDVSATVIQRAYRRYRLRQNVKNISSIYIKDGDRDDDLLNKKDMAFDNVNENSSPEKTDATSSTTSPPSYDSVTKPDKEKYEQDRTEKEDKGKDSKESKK

For assay [2], the target named is T1, hNav1.7. In words: Tritiated compound binding to membranes from cells heterologously expressing hNav1.7 and the β1 subunit (Nav1.7 LBA). The following applies: competitive binding vs [3H]compound, membranes with hNav1.7 and β1 subunit; read-out: Nav1.7 LBA EVO IC50. A digest of the protocol: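 Membranes from cells expressing hNav1.7 with β1 were incubated at room temperature with a tritiated competitive Nav1.7 inhibitor plus test compound in 100 mM NaCl, 20 mM Tris pH 7.4, 0.01% BSA; nonspecific binding was set with 1 μM unlabeled compound. Incubation was 18 h with […] radioligand, or 3 h with […]. Bound ligand was filtered and counted, and IC50 came from a 4-parameter fit.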
Target sequence in this assay (Q15858 whole entry, looked up): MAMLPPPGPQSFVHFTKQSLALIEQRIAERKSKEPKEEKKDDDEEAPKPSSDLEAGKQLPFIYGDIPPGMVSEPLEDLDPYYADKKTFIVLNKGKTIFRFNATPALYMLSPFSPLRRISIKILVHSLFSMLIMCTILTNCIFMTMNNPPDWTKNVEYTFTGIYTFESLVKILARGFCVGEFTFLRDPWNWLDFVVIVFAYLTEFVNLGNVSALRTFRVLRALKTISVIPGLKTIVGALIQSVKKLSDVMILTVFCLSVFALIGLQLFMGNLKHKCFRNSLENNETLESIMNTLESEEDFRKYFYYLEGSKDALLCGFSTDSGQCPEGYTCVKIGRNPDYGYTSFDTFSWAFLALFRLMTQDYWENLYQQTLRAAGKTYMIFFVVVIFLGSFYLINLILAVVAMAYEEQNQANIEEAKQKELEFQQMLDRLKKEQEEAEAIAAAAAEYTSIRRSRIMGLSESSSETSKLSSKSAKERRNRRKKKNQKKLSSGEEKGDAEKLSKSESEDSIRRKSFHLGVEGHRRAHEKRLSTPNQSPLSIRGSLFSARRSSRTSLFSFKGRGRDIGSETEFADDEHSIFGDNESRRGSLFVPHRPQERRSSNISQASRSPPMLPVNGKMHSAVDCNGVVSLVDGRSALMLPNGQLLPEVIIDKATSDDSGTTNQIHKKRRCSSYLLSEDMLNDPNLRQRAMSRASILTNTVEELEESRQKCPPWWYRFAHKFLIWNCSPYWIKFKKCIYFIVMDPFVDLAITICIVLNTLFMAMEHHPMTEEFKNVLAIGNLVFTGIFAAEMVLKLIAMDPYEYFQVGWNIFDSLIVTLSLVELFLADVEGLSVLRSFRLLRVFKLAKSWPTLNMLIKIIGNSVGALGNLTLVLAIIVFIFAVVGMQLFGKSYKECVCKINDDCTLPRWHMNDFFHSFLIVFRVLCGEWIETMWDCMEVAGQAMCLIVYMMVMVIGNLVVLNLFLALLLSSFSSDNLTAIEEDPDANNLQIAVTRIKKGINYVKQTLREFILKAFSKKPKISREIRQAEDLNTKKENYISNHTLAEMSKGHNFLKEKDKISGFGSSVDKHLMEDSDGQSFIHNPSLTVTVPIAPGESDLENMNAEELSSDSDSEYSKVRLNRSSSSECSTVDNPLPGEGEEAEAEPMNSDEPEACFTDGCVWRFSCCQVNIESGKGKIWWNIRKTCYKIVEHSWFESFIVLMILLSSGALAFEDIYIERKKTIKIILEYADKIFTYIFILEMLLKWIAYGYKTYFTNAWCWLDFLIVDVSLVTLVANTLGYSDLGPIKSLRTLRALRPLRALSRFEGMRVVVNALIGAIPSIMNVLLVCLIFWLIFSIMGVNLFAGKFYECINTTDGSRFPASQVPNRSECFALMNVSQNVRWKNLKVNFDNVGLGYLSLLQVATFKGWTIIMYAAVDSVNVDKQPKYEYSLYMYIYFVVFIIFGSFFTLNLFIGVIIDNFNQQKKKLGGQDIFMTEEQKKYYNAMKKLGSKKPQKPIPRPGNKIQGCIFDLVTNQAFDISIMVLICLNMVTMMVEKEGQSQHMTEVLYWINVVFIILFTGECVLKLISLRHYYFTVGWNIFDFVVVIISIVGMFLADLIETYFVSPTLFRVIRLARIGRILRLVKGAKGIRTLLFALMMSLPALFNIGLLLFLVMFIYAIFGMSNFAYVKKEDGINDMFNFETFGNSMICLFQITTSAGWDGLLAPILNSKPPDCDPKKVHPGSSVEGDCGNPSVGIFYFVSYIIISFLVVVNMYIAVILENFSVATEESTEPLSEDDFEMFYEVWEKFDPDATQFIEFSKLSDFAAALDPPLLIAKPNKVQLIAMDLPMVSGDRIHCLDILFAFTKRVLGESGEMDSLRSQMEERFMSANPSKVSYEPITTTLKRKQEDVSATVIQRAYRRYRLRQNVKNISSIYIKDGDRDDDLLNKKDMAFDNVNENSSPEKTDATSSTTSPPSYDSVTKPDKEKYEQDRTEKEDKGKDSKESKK
Target sequence in this assay (Q07699 whole entry partner, looked up): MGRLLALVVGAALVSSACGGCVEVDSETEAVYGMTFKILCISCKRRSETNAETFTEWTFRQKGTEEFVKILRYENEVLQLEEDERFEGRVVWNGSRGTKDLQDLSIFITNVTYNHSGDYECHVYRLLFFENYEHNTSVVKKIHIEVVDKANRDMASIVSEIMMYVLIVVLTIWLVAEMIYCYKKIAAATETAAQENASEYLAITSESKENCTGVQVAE

For orientation: IC50 means the concentration that inhibits the measured activity by half. On to `CN(C)[C@H]1C[C@@H](c2cccc(C(F)(F)F)c2)CC[C@@H]1N1CCCc2cc(S(=O)(=O)Nc3ccncn3)c(F)cc21` [Example 54, 1-((1S,2S,4S)-2-(Dimethylamino)-4-(3-(trifluoromethyl)phenyl)cyclohexyl)-7-fluoro-N-(pyrimidin-4-yl)-1,2,3,4-tetrahydroquinoline-6-sulfonamide], for which the values for the IC50 on hNav1.7 [1] and on hNav1.7 [2] were 1.41 nM and 0.604 nM, respectively.
Regarding `CN(C)[C@H]1C[C@@H](c2cc(C(F)(F)F)ccc2Cl)CC[C@@H]1Oc1cc(F)c(S(=O)(=O)Nc2ccncn2)cc1Cl` [Example 86, 5-chloro-4-(((1S,2S,4S)-4-(2-chloro-5-(trifluoromethyl)phenyl)-2-(dimethylamino)-cyclohexyl)oxy)-2-fluoro-N-(pyrimidin-4-yl)benzenesulfonamide], the IC50 on hNav1.7 [1] turned out to be 0.819 nM; on hNav1.7 [2], 3.28 nM.
On the same counts, the results for `CN(C)[C@H]1C[C@@H](c2cccc(OC(F)F)c2)CC[C@@H]1Nc1cc(F)c(S(=O)(=O)Nc2ccncn2)cc1Cl` [Example 14, 5-Chloro-4-[[(1S,2S,4S)-4-[3-(difluoromethoxy)phenyl]-2-(dimethylamino)-cyclohexyl]amino]-2-fluoro-N-pyrimidin-4-yl-benzenesulfonamide] are 1.63 nM and 4.64 nM.
On to `O=S(=O)(Nc1ccncn1)c1cc(O)c(N[C@H]2CC[C@H](c3cccc(C(F)(F)F)c3)C[C@@H]2N2CCCC2)cc1F` [Example 46, 2-Fluoro-5-hydroxy-N-(pyrimidin-4-yl)-4-(((1S,2S,4S)-2-(pyrrolidin-1-yl)-4-(3-(trifluoromethyl)-phenyl)cyclohexyl)amino)benzenesulfonamide formate], for which the IC50 at hNav1.7 [1] amounted to 1.9 nM; at hNav1.7 [2], 24.5 nM.
On the same counts, the results for `O=S(=O)(Nc1ccncn1)c1cc(Cl)c(O[C@H]2CC[C@H](c3cccc(OC(F)(F)F)c3)C[C@@H]2N2CCCC2)cc1F` [Example 64, 5-chloro-2-fluoro-N-(pyrimidin-4-yl)-4-(((1S,2S,4S)-2-(pyrrolidin-1-yl)-4-(3-(trifluoromethoxy)-phenyl)cyclohexyl)oxy)benzenesulfonamide formate] are 0.554 nM and 1.37 nM.
In the same order, the values of `CN(C)[C@H]1C[C@@H](c2cccc(C(F)(F)F)c2)CC[C@@H]1N(C)c1cc(F)c(S(=O)(=O)Nc2ccncn2)cc1Cl` [Example 51, 5-Chloro-4-(((1S,2S,4S)-2-(dimethylamino)-4-(3-(trifluoromethyl)phenyl)cyclohexyl)-(methyl)amino)-2-fluoro-N-(pyrimidin-4-yl)benzenesulfonamide formate] are 4.65 nM and 169 nM.
As for `CN(C)[C@H]1C[C@@H](c2cc(C(F)(F)F)ccc2F)CC[C@@H]1Nc1cc(F)c(S(=O)(=O)Nc2ccncn2)cc1Cl` [Example 17, 5-chloro-4-(((1S,2S,4S)-2-(dimethylamino)-4-(2-fluoro-5-(trifluoromethyl)phenyl)cyclohexyl)-amino)-2-fluoro-N-(pyrimidin-4-yl)benzenesulfonamide], the results for the IC50 at hNav1.7 [1] and on hNav1.7 [2] were 1.55 nM and 1.03 nM, respectively.
In the same order, the values of `O=S(=O)(Nc1ccncn1)c1cc(Cl)c(O[C@H]2CC[C@H](c3cccc(C(F)(F)F)c3)C[C@@H]2N2CCCC2)cc1F` [Example 60, 5-chloro-2-fluoro-N-(pyrimidin-4-yl)-4-(((1S,2S,4S)-2-(pyrrolidin-1-yl)-4-(3-(trifluoromethyl)-phenyl)cyclohexyl)oxy)benzenesulfonamide formate] are 0.745 nM and 1.6 nM.
In the same order, the values of `CN(C)[C@H]1C[C@@H](c2cccc(C(F)(F)F)c2)CC[C@@H]1Oc1cc(F)c(S(=O)(=O)Nc2ccncn2)cc1F` [Example 48, 4-(((1S,2S,4S)-2-(dimethylamino)-4-(3-(trifluoromethyl)phenyl)cyclohexyl)oxy)-2,5-difluoro-N-(pyrimidin-4-yl)benzenesulfonamide formate] are 3.34 nM and 37.7 nM.
In the same order, the values of `CN(C)[C@H]1CN(c2cc(C(F)(F)F)ccn2)CC[C@@H]1Nc1ccc(S(=O)(=O)Nc2ccncn2)c(F)c1` [Example 72, 4-(((3S,4S)-3-(Dimethylamino)-1-(4-(trifluoromethyl)pyridin-2-yl)piperidin-4-yl)amino)-2-fluoro-N-(pyrimidin-4-yl)benzenesulfonamide formate] are 23.1 nM and 274 nM.
With `CN(C1CNC1)[C@H]1C[C@@H](c2cccc(C(F)(F)F)c2)CC[C@@H]1Nc1cc(F)c(S(=O)(=O)Nc2ccncn2)cc1Cl` [Example 42, 4-(((1S,2S,4S)-2-(azetidin-3-yl(methyl)amino)-4-(3-(trifluoromethyl)phenyl)cyclohexyl)-amino)-5-chloro-2-fluoro-N-(pyrimidin-4-yl)benzenesulfonamide], the IC50 at hNav1.7 [1] is 0.141 nM; on hNav1.7 [2], 0.657 nM.
Regarding `CN(C)[C@H]1C[C@@H](c2ccc(Cl)c(Cl)c2)CC[C@@H]1Nc1cc(F)c(S(=O)(=O)Nc2ccncn2)cc1Cl` [Example 4, 5-Chloro-4-(((1S,2S,4S)-4-(3,4-dichlorophenyl)-2-(dimethylamino)cyclohexyl)amino)-2-fluoro-N-(pyrimidin-4-yl)benzenesulfonamide], the IC50 at hNav1.7 [1] worked out at 0.305 nM; at hNav1.7 [2] it was 1.2 nM.
In the same order, the values of `CN(C)[C@H]1C[C@@H](c2cc(C(F)(F)F)ccc2F)CC[C@@H]1Oc1cc(F)c(S(=O)(=O)Nc2ccncn2)cc1Cl` [Example 74, 5-chloro-4-(((1S,2S,4S)-2-(dimethylamino)-4-(2-fluoro-5-(trifluoromethyl)phenyl)cyclohexyl)oxy)-2-fluoro-N-(pyrimidin-4-yl)benzenesulfonamide] are 1.85 nM and 4.01 nM.
On the same counts, the results for `CN(C)[C@H]1C[C@@H](c2cccc(C(F)(F)F)c2)CC[C@@H]1n1c(=O)oc2cc(S(=O)(=O)Nc3ccncn3)c(F)cc21` [Example 3, 3-((1S,2S,4S)-2-(Dimethylamino)-4-(3-(trifluoromethyl)phenyl)cyclohexyl)-5-fluoro-2-oxo-N-(pyrimidin-4-yl)-2,3-dihydrobenzo[d]oxazole-6-sulfonamide formate] are 26.2 nM and 83.1 nM.
